Measurements reported in ChEMBL document CHEMBL4145540 (Eur J Med Chem, 2018).
The source made the active and inactive calls. The rule behind the calls is not given here.

Columns and labels:
[1] = system: A549; test: Cell cycle arrest in human A549 cells assessed as accumulation at sub-G0 phase at 50 nM after 20 hrs by propidium iodide staining based flow cytometry (reference value: 6.6 +/- 0.1%); type: functional
[2] = system: A549; test: Cell cycle arrest in human A549 cells assessed as accumulation at S phase at 50 nM after 20 hrs by propidium iodide staining based flow cytometry (reference value: 16 +/- 1%); type: functional
[3] = system: A549; test: Disruption of microtubule network in human A549 cells assessed as appearance of compressed and fragmented nuclei at 200 nM after 16 hrs by Hoechst staining based immunofluorescence assay; type: cell-based
[4] = system: HT-29; test: Antiproliferative activity against human HT-29 cells after 2 days by MTT assay; type: functional, cell-based; conditions: HT-29, 48 h
[5] = system: A549; test: Induction of apoptosis in human A549 cells after 24 hrs by Annexin V-FITC/propidium iodide staining based flow cytometry; type: functional, cell-based
[6] = Selectivity index, ratio of IC50 for antiproliferative activity against HEK293 cells to IC50 for antiproliferative activity against human HeLa cells; type: toxicity, cell-based; conditions: HEK293 cells versus HeLa cells, read-out: Ratio IC50
[7] = Selectivity index, ratio of IC50 for antiproliferative activity against HEK293 cells to IC50 for antiproliferative activity against human MCF7 cells; type: toxicity, cell-based; conditions: HEK293 cells versus MCF7 cells, read-out: Ratio IC50
[8] = system: HeLa; test: Antiproliferative activity against human HeLa cells after 2 days by MTT assay; type: functional, cell-based; conditions: 48 h
[9] = species on record: Bos taurus; test: Inhibition of calf brain tubulin polymerization after 60 mins by turbidimetric method
[10] = system: A549; test: Cell cycle arrest in human A549 cells assessed as accumulation at G0/G1 phase at 50 nM after 20 hrs by propidium iodide staining based flow cytometry (reference value: 66 +/- 1%); type: functional
[11] = system: A549; test: Disruption of microtubule network in human A549 cells assessed as appearance of tubulin aggregates at 200 nM after 16 hrs by Hoechst staining based immunofluorescence assay; type: cell-based
[12] = system: HMEC-1; test: Antiproliferative activity against HMEC1 cells after 2 days by MTT assay; type: functional, cell-based; conditions: Homo sapiens, HMEC-1, 48 h
[13] = system: MDA-MB-231; test: Antiproliferative activity against human MDA-MB-231 cells after 3 days by coulter counting method; type: functional, cell-based; conditions: MDA-MB-231, 72 h
[14] = system: MCF7; test: Antiproliferative activity against human MCF7 cells after 2 days by MTT assay; type: functional, cell-based; conditions: MCF7, 48 h
[15] = Selectivity index, ratio of IC50 for antiproliferative activity against HEK293 cells to IC50 for antiproliferative activity against human HL60 cells; type: toxicity, cell-based; conditions: HEK293 cells versus HL60 cells, read-out: Ratio IC50
[16] = system: A549; test: Induction of apoptosis in human A549 cells at 10 nM after 24 hrs by Annexin V-FITC/propidium iodide staining based flow cytometry (reference value: 28%); type: functional
[17] = system: A549; test: Cell cycle arrest in human A549 cells assessed as accumulation at G2/M phase at 50 nM after 20 hrs by propidium iodide staining based flow cytometry (reference value: 11 +/- 1%); type: functional
[18] = Selectivity index, ratio of IC50 for antiproliferative activity against HEK293 cells to IC50 for antiproliferative activity against human HT-29 cells; type: toxicity, cell-based; conditions: HEK293 cells versus HT-29 cells, read-out: Ratio IC50
[19] = system: HL-60; test: Antiproliferative activity against human HL60 cells after 2 days by MTT assay; type: functional, cell-based; conditions: HL-60, 48 h
[20] = system: A549; test: Antiproliferative activity against human A549 cells after 2 days by MTT assay; type: functional, cell-based; conditions: A549, 48 h
[21] = system: HEK293; test: Antiproliferative activity against HEK293 cells after 2 days by MTT assay; type: cell-based; conditions: Homo sapiens, HEK293, 48 h
[22] = system: A549; test: Induction of apoptosis in human A549 cells at 100 nM after 24 hrs by Annexin V-FITC/propidium iodide staining based flow cytometry (reference value: 28%); type: functional
[23] = system: A549; test: Cell cycle arrest in human A549 cells assessed as accumulation at G2/M phase at 75 nM after 20 hrs by propidium iodide staining based flow cytometry (reference value: 11 +/- 1%); type: functional
[24] = system: A549; test: Cell cycle arrest in human A549 cells assessed as accumulation at G0/G1 phase at 75 nM after 20 hrs by propidium iodide staining based flow cytometry (reference value: 66 +/- 1%); type: functional
[25] = system: A549; test: Disruption of microtubule network in human A549 cells assessed as appearance of tubulin aggregates at 300 nM after 16 hrs by Hoechst staining based immunofluorescence assay; type: cell-based
[26] = system: A549; test: Cell cycle arrest in human A549 cells assessed as accumulation at sub-G0 phase at 75 nM after 20 hrs by propidium iodide staining based flow cytometry (reference value: 6.6 +/- 0.1%); type: functional
[27] = system: A549; test: Disruption of microtubule network in human A549 cells assessed as appearance of compressed and fragmented nuclei at 300 nM after 16 hrs by Hoechst staining based immunofluorescence assay; type: cell-based
[28] = system: A549; test: Cell cycle arrest in human A549 cells assessed as accumulation at S phase at 75 nM after 20 hrs by propidium iodide staining based flow cytometry (reference value: 16 +/- 1%); type: functional
[29] = system: A549; test: Cell cycle arrest in human A549 cells assessed as accumulation at G2/M phase at 400 nM after 20 hrs by propidium iodide staining based flow cytometry (reference value: 11 +/- 1%); type: functional
[30] = system: A549; test: Cell cycle arrest in human A549 cells assessed as accumulation at S phase at 400 nM after 20 hrs by propidium iodide staining based flow cytometry (reference value: 16 +/- 1%); type: functional
[31] = system: A549; test: Cell cycle arrest in human A549 cells assessed as accumulation at G0/G1 phase at 400 nM after 20 hrs by propidium iodide staining based flow cytometry (reference value: 66 +/- 1%); type: functional
[32] = system: A549; test: Cell cycle arrest in human A549 cells assessed as accumulation at sub-G0 phase at 400 nM after 20 hrs by propidium iodide staining based flow cytometry (reference value: 6.6 +/- 0.1%); type: functional
[33] = system: A549; test: Cell cycle arrest in human A549 cells assessed as accumulation at sub-G0 phase at 40 nM after 20 hrs by propidium iodide staining based flow cytometry (reference value: 6.6 +/- 0.1%); type: functional
[34] = system: A549; test: Disruption of microtubule network in human A549 cells assessed as appearance of compressed and fragmented nuclei at 150 nM after 16 hrs by Hoechst staining based immunofluorescence assay; type: cell-based
[35] = system: A549; test: Disruption of microtubule network in human A549 cells assessed as appearance of tubulin aggregates at 150 nM after 16 hrs by Hoechst staining based immunofluorescence assay; type: cell-based
[36] = system: A549; test: Cell cycle arrest in human A549 cells assessed as accumulation at S phase at 40 nM after 20 hrs by propidium iodide staining based flow cytometry (reference value: 16 +/- 1%); type: functional
[37] = system: A549; test: Cell cycle arrest in human A549 cells assessed as accumulation at G2/M phase at 40 nM after 20 hrs by propidium iodide staining based flow cytometry (reference value: 11 +/- 1%); type: functional
[38] = system: A549; test: Cell cycle arrest in human A549 cells assessed as accumulation at G0/G1 phase at 40 nM after 20 hrs by propidium iodide staining based flow cytometry (reference value: 66 +/- 1%); type: functional
[39] = system: A549; test: Cell cycle arrest in human A549 cells assessed as accumulation at G0/G1 phase at 160 nM after 20 hrs by propidium iodide staining based flow cytometry (reference value: 66 +/- 1%); type: functional
[40] = system: A549; test: Cell cycle arrest in human A549 cells assessed as accumulation at S phase at 160 nM after 20 hrs by propidium iodide staining based flow cytometry (reference value: 16 +/- 1%); type: functional
[41] = system: A549; test: Cell cycle arrest in human A549 cells assessed as accumulation at G2/M phase at 160 nM after 20 hrs by propidium iodide staining based flow cytometry (reference value: 11 +/- 1%); type: functional
[42] = system: A549; test: Cell cycle arrest in human A549 cells assessed as accumulation at sub-G0 phase at 160 nM after 20 hrs by propidium iodide staining based flow cytometry (reference value: 6.6 +/- 0.1%); type: functional
[43] = system: A549; test: Cell cycle arrest in human A549 cells assessed as accumulation at G2/M phase at 60 nM after 20 hrs by propidium iodide staining based flow cytometry (reference value: 11 +/- 1%); type: functional
[44] = system: A549; test: Disruption of microtubule network in human A549 cells assessed as appearance of tubulin aggregates at 230 nM after 16 hrs by Hoechst staining based immunofluorescence assay; type: cell-based
[45] = system: HMEC-1; test: Vascular disruptive activity in HMEC1 cells assessed as disruption of preformed tubular networks after 4 hrs by matrigel based assay; type: functional, cell-based; conditions: Homo sapiens
[46] = system: A549; test: Cell cycle arrest in human A549 cells assessed as accumulation at S phase at 60 nM after 20 hrs by propidium iodide staining based flow cytometry (reference value: 16 +/- 1%); type: functional
[47] = system: A549; test: Cell cycle arrest in human A549 cells assessed as accumulation at G0/G1 phase at 60 nM after 20 hrs by propidium iodide staining based flow cytometry (reference value: 66 +/- 1%); type: functional
[48] = system: A549; test: Disruption of microtubule network in human A549 cells assessed as appearance of compressed and fragmented nuclei at 230 nM after 16 hrs by Hoechst staining based immunofluorescence assay; type: cell-based
[49] = system: A549; test: Cell cycle arrest in human A549 cells assessed as accumulation at sub-G0 phase at 60 nM after 20 hrs by propidium iodide staining based flow cytometry (reference value: 6.6 +/- 0.1%); type: functional

| Structure (SMILES) | IC50 [4] | IC50 [8] | inhibition [9] | IC50 [13] | IC50 [14] | IC50 [19] | IC50 [20] | Activity [5] | IC50 [12] | Activity [16] | IC50 [21] | Activity [22] | other results |
| --- | --- | --- | --- | --- | --- | --- | --- | --- | --- | --- | --- | --- | --- |
| COc1ccc(/C=C\c2cc(OC)c(OC)c(OC)c2)cc1NC(=O)Oc1ccc(Cl)cc1 | 31 nM | 24 nM |  | 9.39 nM | 82 nM | 770 nM | 800 nM |  | 76 nM |  | 142 nM |  | Activity [29]: 41%; Activity [30]: 18%; Activity [31]: 21%; Activity [32]: 20% |
| COc1ccc(/C=C\c2cc(OC)c(OC)c(OC)c2)cc1NC(=O)Oc1ccccc1 | 2.9 nM | 4.8 nM |  | 11.8 nM | 9.8 nM | 4 nM | 77 nM | Dose-dependent effect | 12 nM | 45% | 3.3 nM | 91% | Activity [33]: 20%; Activity [34]: Active; Activity [35]: Active; Activity [36]: 15%; Activity [37]: 44%; Activity [38]: 21% |
| COc1ccc(/C=C\c2cc(OC)c(OC)c(OC)c2)cc1NC(=O)Oc1ccccc1F | 110 nM | 17 nM |  | 71 nM | 62 nM | 4 nM | 320 nM |  | 180 nM |  | 65 nM |  | Activity [39]: 31%; Activity [40]: 13%; Activity [41]: 39%; Activity [42]: 17% |
| COc1ccc(/C=C\c2cc(OC)c(OC)c(OC)c2)cc1N | 22 nM | 2.6 nM | Active | 12 nM | 8 nM | 4.5 nM | 117 nM | Dose-dependent effect | 12 nM | 56% | 7.1 nM | 62% | Activity [43]: 41%; Activity [44]: Active; Activity [45]: Dose-dependent effect; Activity [46]: 24%; Activity [47]: 21%; Activity [48]: Active; Activity [49]: 14% |

Second part, led by results:

| IC50 [4] | IC50 [8] | inhibition [9] | IC50 [13] | IC50 [14] | IC50 [19] | IC50 [20] | Structure (SMILES) | Activity [5] | IC50 [12] | Activity [16] | IC50 [21] | Activity [22] | other results |
| --- | --- | --- | --- | --- | --- | --- | --- | --- | --- | --- | --- | --- | --- |
| 9.2 nM | 4.79 nM | Active | 15.1 nM | 4.4 nM | 13.5 nM | 100 nM | COc1ccc(/C=C\c2cc(OC)c(OC)c(OC)c2)cc1NC(=O)Oc1cccc(Cl)c1 | Dose-dependent effect | 9 nM | 29% | 14.5 nM | 93% | Activity [1]: 16%; Activity [2]: 10%; Activity [3]: Active; selectivity ratio [6]: 2 to 11; selectivity ratio [7]: 2 to 11; Activity [10]: 30%; Activity [11]: Active; selectivity ratio [15]: 2 to 11; Activity [17]: 44%; selectivity ratio [18]: 2 to 11 |
| 10.6 nM | 2.7 nM | Active | 14.8 nM | 7 nM | 60 nM | 150 nM | COc1ccc(/C=C\c2cc(OC)c(OC)c(OC)c2)cc1NC(=O)Oc1cccc(F)c1 | Dose-dependent effect | 20 nM | 26% | 13.2 nM | 67% | Activity [23]: 43%; Activity [24]: 29%; Activity [25]: Active; Activity [26]: 19%; Activity [27]: Active; Activity [28]: 10% |
